Assay [1] concerns the target T1, testosterone (T) production in NCI-H295R cells (Homo sapiens, UniProt P05108).
T1 construct: testosterone measured by LC-MS/MS as downstream steroid
T1 sequence (P05108 40-521): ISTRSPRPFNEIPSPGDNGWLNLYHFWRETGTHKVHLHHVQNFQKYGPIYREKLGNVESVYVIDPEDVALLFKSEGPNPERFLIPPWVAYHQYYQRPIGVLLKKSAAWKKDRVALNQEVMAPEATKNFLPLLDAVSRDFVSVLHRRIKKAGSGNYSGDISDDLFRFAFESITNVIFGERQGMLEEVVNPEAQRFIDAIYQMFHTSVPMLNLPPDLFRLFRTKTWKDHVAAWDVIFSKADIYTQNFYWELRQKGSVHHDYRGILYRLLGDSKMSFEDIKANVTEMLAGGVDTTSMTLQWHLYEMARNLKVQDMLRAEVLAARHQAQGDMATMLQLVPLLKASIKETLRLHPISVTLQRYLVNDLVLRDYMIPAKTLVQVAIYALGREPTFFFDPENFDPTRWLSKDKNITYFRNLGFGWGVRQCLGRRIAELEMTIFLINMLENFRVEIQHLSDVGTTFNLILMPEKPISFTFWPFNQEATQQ
Kind of assay: H295R Steroid Biosynthesis Inhibition Assay - inhibition of testosterone (T) production in NCI-H295R cells. The format is cell-based. The settings on record: 48 h, LC-MS/MS, read-out: Inh. of T IC50. An outline of the steps:
(§1)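 NCI-H295R cells (60,000/well, charcoal-stripped FBS medium) were exposed to compounds at 1000–0.15 nM for 48 h. Pregnenolone and testosterone in medium were quantified by LC-MS/MS with deuterated internal standards. IC50 was fitted with a four-parameter inhibitory dose-response equation.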

A further assay deals with T2, CYP11A1 (Homo sapiens, UniProt P05108).
T2 construct: measuring the cellular production of pregnenolone (P) catalyzed by CYP11A1; host or cells: NCI-H295R
T2 sequence (P05108 40-521): T1 sequence (P05108 40-521)
Kind of assay: H295R Steroid Biosynthesis Inhibition Assay - inhibition of pregnenolone (P) production catalyzed by CYP11A1 in NCI-H295R cells. It counts as cell-based. The following applies: 48 h, LC-MS/MS, read-out: Inh. of P IC50. The method, boiled down: as §1

With `O=C(NCC(F)(F)F)N1CCC(c2cnc3cc(CN4Cc5ccccc5C4)ccc3n2)CC1` [Compound 120], the figures for the IC50 (in assay [1]; at CYP11A1) were 41 to 100 nM and not above 40 nM, respectively.

As to `CN(C)C(=O)N1CCC(c2cnc3cc(CN4Cc5ccccc5C4)ccc3n2)CC1` [Compound 121], the IC50 in assay [1] is 41 to 100 nM; on CYP11A1, not above 40 nM.

For `O=S1(=O)CCC(c2cnc3cc(CN4Cc5ccccc5C4)ccc3n2)CC1` [Compound 124], the IC50 in assay [1] was not below 101 nM; at CYP11A1, not below 100 nM.

As to `CS(=O)(=O)N1CCC(c2cnc3cc(CN4CCn5cccc5C4)ccc3n2)CC1` [Compound 125], the IC50 is not below 101 nM in assay [1] and not below 100 nM on CYP11A1.

With `CS(=O)(=O)N1CCC(c2cc3cc(CN4Cc5ccccc5C4)ccc3o2)CC1` [Compound 126], the IC50 (in assay [1]; on CYP11A1) was not above 40 nM throughout.

With `O[C@H]1CC[C@H](c2nc3cc(CN4Cc5ccccc5C4)ccc3o2)CC1` [Compound 127], the IC50 (in assay [1]; at CYP11A1) was not above 40 nM each time.

As to `CS(=O)(=O)N1CCC(c2nc3cc(CN4Cc5ccccc5C4)ccc3s2)CC1` [Compound 128], the IC50 in assay [1] is 41 to 100 nM; on CYP11A1, not above 40 nM.

For the molecule `Cn1c(C2CCN(S(C)(=O)=O)CC2)nc2cc(CN3Cc4ccccc4C3)ccc21` [Compound 129], the results for the IC50 (in assay [1]; on CYP11A1) were not below 101 nM and not above 40 nM, respectively.

As for `Cn1c(C2CCN(S(C)(=O)=O)CC2)nc2ccc(CN3Cc4ccccc4C3)cc21` [Compound 130], the IC50 is not below 101 nM in assay [1] and not above 40 nM at CYP11A1.

Turning to `CS(=O)(=O)N1CCC(n2cc3ccc(CN4Cc5ccccc5C4)cc3n2)CC1` [Compound 131], the IC50 (in assay [1]; on CYP11A1) was not above 40 nM in each case.
